The record followed here is patent US20240246941A1, “SUBSTITUTED 4-(3-AMINOPROP-1-YL)AMINOQUINOLINE ANALOGS AS MODULATORS OF MELANOMA-ASSOCIATED ANTIGEN 11 UBIQUITIN LIGASE” (ST. JUDE CHILDREN'S RESEARCH HOSPITAL, INC., priority 2020, published 2024).

The target in this test is MAGE-A11:PCF11 (Homo sapiens (Human), UniProt P43364). The experiment in a line: TR-FRET single point screening at 15 μM. Further details: unit not given here. Type of test: binding. The essentials:
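Competition TR-FRET: compounds at final 15 μM mixed with 200 nM FAM-PCF11_4, 5 nM GST-MAGEA11 and 5 nM Tb-anti-GST in Tris pH 7.5/MgCl2/BSA/DTT buffer, room temperature, 90 min. Emission ratio 520/490 nm (340 nm excitation) expressed as % inhibition relative to positive and negative controls.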
Background: In TR-FRET formats the signal depends on donor and acceptor labels being close together.

Where [1] appears, read: single point TR-FRET screening at 15 μM against MAGE-A11:PCF11.
Where [2] appears, read: single point TR-FRET screening of quinoline compounds against MAGE-A11:PCF11, 15 μM.

SMILES strings stand for the structures.

Chain of MAGE-A11:PCF11 (P43364 218-429): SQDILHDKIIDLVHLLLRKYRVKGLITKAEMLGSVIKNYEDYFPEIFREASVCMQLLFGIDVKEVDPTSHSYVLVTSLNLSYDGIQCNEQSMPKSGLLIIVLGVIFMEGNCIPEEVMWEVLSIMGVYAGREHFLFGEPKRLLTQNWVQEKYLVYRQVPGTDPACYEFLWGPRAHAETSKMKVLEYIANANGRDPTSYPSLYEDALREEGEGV

Consider `COc1ccc2nc3cc(Cl)ccc3c(NCCCNCc3ccncc3)c2c1` [SJ000523023], for which, under setting [1], the TR-FRET signal was −127.6. Same read-out and setting: for `COc1ccc2nc3cc(Cl)ccc3c(NCCCNCc3ccccn3)c2c1` [SJ000523024] the value was −255.3; for `COc1ccc2nc3cc(Cl)ccc3c(NCCCNCCCSC)c2c1` [SJ000523025], −336.9; for `COc1ccc2nc3cc(Cl)ccc3c(NCCCNCc3ccsc3)c2c1` [SJ000523026], −353.8. Still for that read-out and setting: next, `COc1ccc2nc3cc(Cl)ccc3c(NCCCNCCC(C)c3ccccc3)c2c1` (stereo not shown) [SJ000523027]: −340.3. In turn, `COc1ccc2nc3cc(Cl)ccc3c(NCCCNCc3ccc(N(C)C)c4ccccc34)c2c1` [SJ000523028] showed a TR-FRET signal under setting [2] of −1.532. Take `COc1ccc2nc3cc(Cl)ccc3c(NCCCNCc3ccc(C)s3)c2c1` [SJ000523029]: under setting [1], the TR-FRET signal is recorded as −304.8. The same measure, in the same setting: for `COc1ccc2nc3cc(Cl)ccc3c(NCCCNCc3ccc(Br)o3)c2c1` [SJ000523030] the value was −219.4. On to `COc1ccc2nc3cc(Cl)ccc3c(NCCCNCc3ccccc3N)c2c1` [SJ000523031], for which the TR-FRET signal under setting [2] is recorded as −57.15. Under setting [1], `COc1ccc2nc3cc(Cl)ccc3c(NCCCNCc3ccco3)c2c1` [SJ000523032] gave a TR-FRET signal of −165.3.

In turn, `COc1ccc(CNCCCNc2c3ccc(Cl)cc3nc3ccc(OC)cc23)cc1` [SJ000523033] returned a TR-FRET signal under setting [1] of −338.9. Turning to `COc1ccc2nc3cc(Cl)ccc3c(NCCCNCc3ccccc3F)c2c1` [SJ000523034], the TR-FRET signal under setting [1] is −353.8. On the same count and under the same terms, next, `COc1ccc2nc3cc(Cl)ccc3c(NCCCNCc3ccc(F)cc3)c2c1` [SJ000523035]: −398.2; `COc1ccc2nc3cc(Cl)ccc3c(NCCCNCc3ccc(Cl)c([N+](=O)[O-])c3)c2c1` [SJ000523036]: −95.38.

Take `COc1ccc2nc3cc(Cl)ccc3c(NCCCNCc3cccc(C#N)c3)c2c1` [SJ000523037]: the TR-FRET signal under setting [1] is listed as −333.2. The compound `COc1ccc2nc3cc(Cl)ccc3c(NCCCNCc3ccc4ccccc4c3)c2c1` [SJ000523038] came in with a TR-FRET signal under setting [1] of −109.5. On to `CCCN(CCCNc1ccnc2cc(Cl)ccc12)Cc1ccc(-c2ccccc2)cc1` [SJ000523039], for which, under setting [2], the TR-FRET signal turned out to be 30.23. On the same count and under the same terms, next, `CCCN(CCCNc1ccnc2cc(Cl)ccc12)Cc1ccc2ccccc2c1` [SJ000523040]: 32.85; `CCCN(CCCNc1ccnc2cc(Cl)ccc12)Cc1cccc(C)c1` [SJ000523041]: 28.55; `CCCN(CCCNc1ccnc2cc(Cl)ccc12)Cc1ccc(C(=O)OC)cc1` [SJ000523042]: 16.72. Same read-out and setting: next, `CCCN(CCCNc1ccnc2cc(Cl)ccc12)Cc1ccc(Cl)cc1Cl` [SJ000523043]: 12.1. Turning to `CCCN(CCCNc1ccnc2cc(Cl)ccc12)Cc1ccc(-c2ccccc2[N+](=O)[O-])o1` [SJ000523044], the TR-FRET signal under setting [2] worked out at 9.266. Still for that read-out and setting: next, `CCCN(CCCNc1ccnc2cc(Cl)ccc12)Cc1ccc(-c2cccc(Cl)c2)o1` [SJ000523045]: 16.23; `CCCN(CCCNc1ccnc2cc(Cl)ccc12)Cc1c(Cl)ccc(Cl)c1Cl` [SJ000523046]: 17.75. Same read-out and setting: next, `CCCN(CCCNc1ccnc2cc(Cl)ccc12)Cc1ccc([N+](=O)[O-])o1` [SJ000523047]: 9.575; `CCCCCCN(CCC)CCCNc1ccnc2cc(Cl)ccc12` [SJ000523048]: 1.317.

In turn, `Clc1ccc2c(NCCCNCc3ccncc3)ccnc2c1` [SJ000523049] registered a TR-FRET signal under setting [2] of 6.077. On the same count and under the same terms, for `Clc1ccc2c(NCCCNCc3ccccn3)ccnc2c1` [SJ000523050] the value was 4.744; for `CSCCCNCCCNc1ccnc2cc(Cl)ccc12` [SJ000523051], 14.97. Same read-out and setting: next, `Clc1ccc2c(NCCCNCc3ccsc3)ccnc2c1` [SJ000523052]: 15.25.

For `CC(CCNCCCNc1ccnc2cc(Cl)ccc12)c1ccccc1` (stereo not shown) [SJ000523053], under setting [2], the TR-FRET signal was found to be 19.01.
